Assay results from patent US10202334B2, “Pendant amines and derivatives as inhibitors of leukotriene A4 hydrolase” (Celtaxsys, Inc., priority 2016, dated 2019).
Like-named read-outs stand apart in the source and are kept apart here.

Experiments:
[1] = target: T1, LTA4 hydrolase peptidase activity (Homo sapiens, UniProt P09960); assay: Peptidase assay (hydrolysis of L-alanine-p-nitroanilide); format: biochemical
T1 sequence (P09960 1-611): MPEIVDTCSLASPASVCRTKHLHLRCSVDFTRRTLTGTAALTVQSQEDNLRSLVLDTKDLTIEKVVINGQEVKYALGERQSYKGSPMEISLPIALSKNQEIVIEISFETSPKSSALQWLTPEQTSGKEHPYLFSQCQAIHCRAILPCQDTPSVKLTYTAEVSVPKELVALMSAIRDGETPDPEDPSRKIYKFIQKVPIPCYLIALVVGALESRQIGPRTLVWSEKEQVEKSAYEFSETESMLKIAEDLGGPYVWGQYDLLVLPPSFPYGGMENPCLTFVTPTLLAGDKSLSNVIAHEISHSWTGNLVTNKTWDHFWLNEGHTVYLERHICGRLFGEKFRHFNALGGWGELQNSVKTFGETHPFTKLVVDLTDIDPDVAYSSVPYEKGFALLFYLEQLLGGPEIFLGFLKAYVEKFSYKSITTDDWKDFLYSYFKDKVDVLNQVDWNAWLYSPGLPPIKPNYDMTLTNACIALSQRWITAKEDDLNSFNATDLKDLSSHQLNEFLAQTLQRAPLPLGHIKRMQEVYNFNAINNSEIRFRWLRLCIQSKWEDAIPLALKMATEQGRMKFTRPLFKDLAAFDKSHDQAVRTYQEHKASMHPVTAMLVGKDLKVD
Procedure: Inhibition of peptidase activity was measured for the compounds of the invention by using methods similar to those described in Kull, F. et al., The Journal of Biological Chemistry 1999, 274 (49): 34683-34690.
In brief, the enzyme (29 nM) was incubated with L-alanine-p-nitroanilide (1 mM) in 50 mM HEPES (pH 7.5), 100 mM KCL, 1% DMSO in the absence or presence of a compound of the invention for 1 hour at ambient temperature. Reaction was terminated by addition of acetic acid (1%). Formation of colored nitro-aniline was measured by the increase in absorbance at 405 nm in a Victor 2 plate reader (Wallac). Spontaneous hydrolysis of the substrate was corrected for by subtracting the absorbance of control incubations without enzyme.

[2] = system: production of LTB4 in whole blood; assay: Human whole blood assay (LTB4 release upon calcium ionophore, ELISA); format: cell-based
Procedure: Compounds of the invention were tested for their ability as inhibitors of LTA4 hydrolase in a whole blood assay using human, mouse, rat or dog whole blood in a manner similar to that described in Penning, T. D. et al., J. Med. Chem. (2000), 43(4): 721-735. In this assay, compounds were tested for their ability to inhibit LTB4 release upon stimulation with calcium ionophore. The LTB4 levels in supernatants were measured by ELISA.

[3] = target: T2, recombinant human LTA4 hydrolase (Homo sapiens, UniProt P09960); assay: LTA4 hydrolase homogeneous time resolved fluorescence (HTRF) assay; format: biochemical
T2 sequence (P09960 1-611): T1 sequence (P09960 1-611)
Procedure: Compounds of the invention were tested in the LTA4 hydrolase homogeneous time resolved fluorescence (HTRF) assay to determine their ability to inhibit the hydrolysis of LTA4 to LTB4. The assay analyzes the amount of LTB4 produced.
LTA4 HTRF assay is a two-step assay involving enzymatic conversion of LTA4 to LTB4, and subsequent quantification of LTB4, product with HTRF assay.
The enzymatic conversion of LTA4 to LTB4 was performed in 384-well plates at ambient temperature in a reaction mixture containing 50 mM HEPES (pH 7.5), 0.5% BSA (fatty acid free), 18 nM recombinant human LTA4 hydrolase, 150 nM LTA4, 1% DMSO in the absence or presence of a compound of the invention. Reaction was stopped after 10 minutes incubation by diluting the incubation mixture 10-fold in 50 mM phosphate, 0.1% casein buffer (pH 7.0).
LTB4 formed was quantified with the HTRF assay in which free LTB4 competes with LTB4-XL665 conjugate (acceptor) for anti-LTB4 monoclonal antibody labeled with Europium cryptate (donor), thereby inhibiting the fluorescence energy transfer.
The LTB4 HTRF 384-well assay was carried out by incubating LTB4 samples or standards with LTB4-XL665 conjugate (7.5 ng/well) and anti-LTB4 monoclonal antibody-Europium cryptate conjugate (0.5 ng/well) in 50 mM phosphate, 0.4 M KF and 0.1% casein, buffer (pH 7.0) for two hours at ambient temperature. Plates were read in a RubyStar plate reader (BmG Labtechnologies Inc., NC) simultaneously at 620 nm and 665 nm to obtain signal ratios of 665 nm/620 nm. Results of energy transfer were expressed as delta F (%) which equaled [(signal ratio of sample-signal ratio of negative control)/(signal ratio of negative control)]×100%. Negative controls were control samples without LTB4 or LTB4-XL665.
Sample LTB4 concentrations were calculated from the LTB4 standard curve using the 4-parameter fit equation. For determination IC50 values for a particular compound of the invention, eight serially diluted compound concentrations (at 1:3.16 dilution) were used in this assay. Controls without a compound of the invention or with a reference compound were run parallel in the same assay plate.

[4] = read-out: inhibit peptidase activity, IC50 value
[5] = Homo sapiens, whole blood, read-out: inhibit production of LTB4 in whole blood, IC50 value
[6] = Table 1, human whole blood, read-out: Human Whole Blood IC50
[7] = read-out: inhibit LTA4 hydrolase activity, IC50 value
[8] = Table 1, read-out: Hydrolase IC50
[9] = Table 1, read-out: Peptidase IC50

Row | IC50 [1, 4] | IC50 [2, 5] | IC50 [2, 6] | IC50 [3, 7] | IC50 [3, 8] | IC50 [1, 9] | Molecule | IC50 ([2]; whole blood, read-out: inhibit production of LTB4 in whole blood, IC50 value)
1 | 215 nM | 252 nM | 252 nM | – | – | – | COC(=O)CCC(=O)NCC(N)CCC(=O)Nc1ccc(Oc2ccccc2)cc1 (stereo in doubt) [Example 6, methyl 3-{[(2R)-2-amino-4-[(4-phenoxyphenyl)carbamoyl]butyl]carbamoyl}propanoate] | –
2 | 25 nM | 138 nM | 138 nM | 38 nM | – | – | NC(CCC(=O)NCCN1CCCC1)C(=O)Nc1ccc(Oc2ccc(-n3cccc3)cc2)cc1 (stereo in doubt) [Example 7, (2R)-2-amino-N-{4-[4-(1H-pyrrol-1-yl)phenoxy]phenyl}-N′-[2-(pyrrolidin-1-yl)ethyl]pentanediamide] | –
3 | – | – | – | – | 107 nM | 118 nM | N[C@@H](CCC(=O)Nc1ccc(OCc2ccccc2)cc1)C(=O)NCc1ccccc1 [(2S)-2-amino-N-benzyl-N′-[4-(benzyloxy)phenyl]pentanediamide] | –
4 | 24 nM | 117 nM | 117 nM | 27 nM | – | – | CNC(=O)C(N)CCC(=O)Nc1ccc(OCc2ccccc2)cc1 (centres unmarked) [Example 1, 2-amino-N5-(4-(benzyloxy)phenyl)-N1-methylpentanediamide] | –
5 | 22 nM | 143 nM | 143 nM | 84 nM | – | – | NC(=O)C(N)CCC(=O)Nc1ccc(Oc2ccccc2)cc1 (centres unmarked) [Example 2, 4-amino-N1-(4-phenoxyphenyl)pentanediamide] | –
6 | 21 nM | 55 nM | 55 nM | 17 nM | – | – | COC(=O)[C@@H](N)CCC(=O)Nc1ccc(Oc2ccc(-n3cccc3)cc2)cc1 [Example 4, methyl N^5-(4-(4-(1H-pyrrol-1-yl)phenoxy)phenyl)glutaminate] | –
7 | 53 nM | 664 nM | 664 nM | 10 nM | – | – | N[C@H](CCC(=O)Nc1ccc(Oc2ccc(-n3cccc3)cc2)cc1)C(=O)NCCc1cnc[nH]1 [Example 9, (2R)-2-amino-N-[2-(1H-imidazol-5-yl)ethyl]-N′-{4-[4-(1H-pyrrol-1-yl)phenoxy]phenyl}pentanediamide] | –
8 | 40 nM | – | – | 73 nM | – | – | CCOC(=O)CCNC(=O)[C@H](N)CCC(=O)Nc1ccc(Oc2ccccc2)cc1 [Example 10, ethyl 3-[(2R)-2-amino-4-[(4-phenoxyphenyl)carbamoyl]butanamido]propanoate] | –
9 | 21 nM | 113 nM | 113 nM | – | – | – | COC(=O)[C@@H](N)CCC(=O)Nc1ccc(OCC(O)c2ccccc2)cc1 (stereo partly drawn) [Example 11, methyl (2S)-2-amino-4-{[4-(2-hydroxy-2-phenylethoxy)phenyl]carbamoyl}butanoate] | –
10 | 213 nM | 184 nM | 184 nM | – | – | – | COC(=O)[C@@H](N)CCC(=O)Nc1ccc(Nc2ccccc2)cc1 [Example 12, methyl (2S)-2-amino-4-{[4-(phenylamino)phenyl]carbamoyl}butanoate] | –
11 | – | – | 61 nM | – | 67 nM | 31 nM | COC(=O)[C@@H](N)CCC(=O)Nc1ccc(OCC(=O)c2ccccc2)cc1 [methyl N5-(4-(2-oxo-2-phenylethoxy)phenyl)glutaminate] | –
12 | – | – | 41 nM | – | – | 146 nM | CC(C)(C)OC(=O)[C@@H](N)CCC(=O)Nc1ccc(CCC(=O)c2ccccc2)cc1 [tert-butyl N5-(4-(3-oxo-3-phenylpropyl)phenyl)glutaminate] | –

Row | Molecule | IC50 [1, 4] | IC50 [2, 5] | IC50 [2, 6] | IC50 [3, 7] | IC50 [3, 8] | IC50 [1, 9] | IC50 ([2]; whole blood, read-out: inhibit production of LTB4 in whole blood, IC50 value)
13 | NC(CCC(=O)Nc1ccc(Oc2ccccc2)cc1)C(=O)NCCCl (centres unmarked) [Example 3, 2-amino-N^1-(2-chloroethyl)-N^5-(4-phenoxyphenyl)pentanediamide] | 24 nM | 83 nM | 83 nM | 58 nM | – | – | –
14 | (2S)-2-amino-N-[2-(pyridin-2-yl)ethyl]-N′-{4-[4-(1H-pyrrol-1-yl)phenoxy]phenyl}pentanediamide [Example 8] | 32 nM | – | – | – | – | – | 264 nM
